Reference: PubChem BioAssay AID248 (DTP/NCI, 2004)
Several values for one entry are separate records, joined by “and”; a condition that tells them apart may be missing. Identical values can stand only once. Inconclusive results and toxic doses are left out. Rule as the data show it: active = T/C of 150% or more; inactive = T/C below 125%.

Test system: L1210 leukemia ip in BDF1 mice, survival T/C
Experiment: NCI In Vivo Anticancer Drug Screen. Data for tumor model L1210 Leukemia (intraperitoneal) in B6D2F1 (BDF1) mice
Details: endpoint: mean survival time, higher = longer survival
Method in brief: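 Transplantable tumor model; survival measured in treated vs vehicle control mice. Value = treated/control.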

[1] = dose: 100.0 mg/kg/injection, schedule: Q01DX001 (ip), vehicle: Klucel (hydroxypropylcellulose) (HPC)
[2] = dose: 100.0 mg/kg/injection, schedule: Q01DX001 (ip), vehicle: saline with Tween-80
[3] = dose: 200.0 mg/kg/injection, schedule: Q01DX001 (ip), vehicle: saline with Tween-80
[4] = dose: 50.0 mg/kg/injection, schedule: Q01DX009 (ip), vehicle: saline with Tween-80
[5] = dose: 100.0 mg/kg/injection, schedule: Q01DX001 (ip), vehicle: saline
[6] = dose: 200.0 mg/kg/injection, schedule: Q01DX001 (ip), vehicle: saline
[7] = dose: 400.0 mg/kg/injection, schedule: Q01DX001 (ip), vehicle: saline
[8] = dose: 100.0 mg/kg/injection, schedule: Q04DX003 (ip), vehicle: saline
[9] = dose: 100.0 mg/kg/injection, schedule: Q01DX009 (ip), vehicle: Klucel (hydroxypropylcellulose) (HPC)
[10] = dose: 200.0 mg/kg/injection, schedule: Q01DX009 (ip), vehicle: Klucel (hydroxypropylcellulose) (HPC)
[11] = dose: 100.0 mg/kg/injection, schedule: Q01DX009 (ip), vehicle: saline with Tween-80
[12] = dose: 200.0 mg/kg/injection, schedule: Q01DX009 (ip), vehicle: saline with Tween-80
[13] = dose: 400.0 mg/kg/injection, schedule: Q04DX002 (ip), vehicle: saline with Tween-80

Measured: T/C

C=C(Br)CNC(=O)NCCCl
inactive: [1] 90 % of control | dose: 200.0 mg/kg/injection, schedule: Q01DX001 (ip), vehicle: Klucel (hydroxypropylcellulose) (HPC) 96 % of control

N#CCCP(=O)(CCC#N)CCP(=O)(CCC#N)CCC#N
inactive: dose: 100.0 mg/kg/injection, schedule: Q04DX003 (ip), vehicle: saline with Tween-80 91 % of control | dose: 200.0 mg/kg/injection, schedule: Q04DX003 (ip), vehicle: saline with Tween-80 91 % of control | dose: 400.0 mg/kg/injection, schedule: Q04DX003 (ip), vehicle: saline with Tween-80 94 % of control

O=C(Nc1ccccc1)C(Cl)S(=O)(=O)O (centres undefined)
inactive: [2] 97 % of control | [3] 97 % of control

O=C(c1cccc([N+](=O)[O-])c1)C1CC1
inactive: dose: 25.0 mg/kg/injection, schedule: Q01DX001 (ip), vehicle: Klucel (hydroxypropylcellulose) (HPC) 97 % of control | dose: 50.0 mg/kg/injection, schedule: Q01DX001 (ip), vehicle: Klucel (hydroxypropylcellulose) (HPC) 101 % of control | [1] 95 % of control

Cc1ccc(S(=O)(=O)OC2CC3CCC2C3)cc1 (centres undefined)
inactive: dose: 100.0 mg/kg/injection, schedule: Q01DX009 (ip), vehicle: other 107 % of control | dose: 200.0 mg/kg/injection, schedule: Q01DX009 (ip), vehicle: other 100 % of control | dose: 400.0 mg/kg/injection, schedule: Q01DX009 (ip), vehicle: other 102 % of control

NC(=S)N/N=C/c1cc(Br)ccc1O
inactive: dose: 100.0 mg/kg/injection, schedule: Q01DX001 (ip), vehicle: carboxymethylcellulose (CMC) 100 % of control | dose: 200.0 mg/kg/injection, schedule: Q01DX001 (ip), vehicle: carboxymethylcellulose (CMC) 100 % of control | dose: 400.0 mg/kg/injection, schedule: Q01DX001 (ip), vehicle: carboxymethylcellulose (CMC) 105 % of control

O=C(O)/C(Cl)=C(/Cl)C(Cl)=C(Cl)Cl
inactive: [4] 97 % of control

O=C(O)C(F)(F)C(F)(Cl)C(F)(F)C(F)(Cl)C(F)(F)C(F)(Cl)C(F)(F)Cl (centres undefined)
inactive: [5] 96 % of control and 90 % of control | [6] 110 % of control and 93 % of control | [7] 107 % of control

CN(C)C(=O)NCC[N+](C)(C)C
inactive: dose: 100.0 mg/kg/injection, schedule: Q01DX009 (ip), vehicle: saline 100 % of control | [8] 99 % of control | dose: 200.0 mg/kg/injection, schedule: Q01DX009 (ip), vehicle: saline 106 % of control | dose: 200.0 mg/kg/injection, schedule: Q04DX003 (ip), vehicle: saline 92 % of control | dose: 400.0 mg/kg/injection, schedule: Q01DX009 (ip), vehicle: saline 97 % of control | dose: 400.0 mg/kg/injection, schedule: Q04DX003 (ip), vehicle: saline 94 % of control

COc1ccccc1NC(=O)NCCN1CCOCC1
inactive: [9] 103 % of control | [10] 95 % of control

O=C1NC(=S)NC(=O)C1=Cc1ccncc1
inactive: [5] 105 % of control | [6] 102 % of control | [7] 98 % of control

CCOc1ccc(NC(=S)NC(=O)c2ccccc2F)cc1
inactive: dose: 25.0 mg/kg/injection, schedule: Q01DX009 (ip), vehicle: saline with Tween-80 92 % of control | [4] 104 % of control | [11] 87 % of control | [12] 87 % of control

CNC=O
inactive: dose: 32.0 mg/kg/injection, schedule: Q01DX015 (ip), vehicle: saline 94 % of control | dose: 42.87 mg/kg/injection, schedule: Q01DX Z (ip), vehicle: carboxymethylcellulose (CMC) 102 % of control | dose: 42.88 mg/kg/injection, schedule: Q01DX Z (ip), vehicle: carboxymethylcellulose (CMC) 107 % of control | dose: 44.12 mg/kg/injection, schedule: Q01DX Z (ip), vehicle: carboxymethylcellulose (CMC) 98 % of control | dose: 63.0 mg/kg/injection, schedule: Q01DX015 (ip), vehicle: saline 94 % of control | dose: 75.0 mg/kg/injection, schedule: Q01DX009 (ip), vehicle: saline 112 % of control | dose: 85.75 mg/kg/injection, schedule: Q01DX Z (ip), vehicle: carboxymethylcellulose (CMC) 103 % of control and 113 % of control | dose: 125.0 mg/kg/injection, schedule: Q01DX015 (ip), vehicle: saline 102 % of control | dose: 125.0 mg/kg/injection, schedule: Q01DX Z (ip), vehicle: saline 110 % of control | dose: 150.0 mg/kg/injection, schedule: Q01DX009 (ip), vehicle: saline 112 % of control | dose: 150.0 mg/kg/injection, schedule: Q01DX Z (ip), vehicle: saline 114 % of control | dose: 171.5 mg/kg/injection, schedule: Q01DX Z (ip), vehicle: carboxymethylcellulose (CMC) 110 % of control and 115 % of control | dose: 176.5 mg/kg/injection, schedule: Q01DX Z (ip), vehicle: carboxymethylcellulose (CMC) 111 % of control | dose: 225.0 mg/kg/injection, schedule: Q01DX001 (ip), vehicle: saline 101 % of control | dose: 225.0 mg/kg/injection, schedule: Q04DX003 (ip), vehicle: saline 97 % of control | dose: 250.0 mg/kg/injection, schedule: Q01DX015 (ip), vehicle: saline 110 % of control | dose: 300.0 mg/kg/injection, schedule: Q01DX009 (ip), vehicle: saline 121 % of control | dose: 343.0 mg/kg/injection, schedule: Q01DX Z (ip), vehicle: carboxymethylcellulose (CMC) 101 % of control and 118 % of control | dose: 353.0 mg/kg/injection, schedule: Q01DX Z (ip), vehicle: carboxymethylcellulose (CMC) 100 % of control | dose: 450.0 mg/kg/injection, schedule: Q01DX001 (ip), vehicle: saline 97 % of control | dose: 450.0 mg/kg/injection, schedule: Q04DX003 (ip), vehicle: saline 101 % of control | dose: 600.0 mg/kg/injection, schedule: Q01DX Z (ip), vehicle: saline 121 % of control | dose: 900.0 mg/kg/injection, schedule: Q01DX001 (ip), vehicle: saline 95 % of control | dose: 900.0 mg/kg/injection, schedule: Q04DX003 (ip), vehicle: saline 119 % of control | dose: 1000.0 mg/kg/injection, schedule: Q01DX015 (ip), vehicle: saline 105 % of control

CCOC(=O)C1C(=O)C=C(C)C(C(=O)OCC)C1c1ccc(N(C)C)cc1 (centres undefined)
inactive: dose: 25.6 mg/kg/injection, schedule: Q04DX002 (ip), vehicle: saline with Tween-80 92 % of control | dose: 64.0 mg/kg/injection, schedule: Q04DX002 (ip), vehicle: saline with Tween-80 96 % of control | dose: 160.0 mg/kg/injection, schedule: Q04DX002 (ip), vehicle: saline with Tween-80 92 % of control | [13] 103 % of control

Cc1ccc(S(=O)(=O)OC23CCC(C)(CC2)C2(C3)OCCO2)cc1
inactive: dose: 100.0 mg/kg/injection, schedule: Q04DX002 (ip), vehicle: saline 95 % of control | dose: 200.0 mg/kg/injection, schedule: Q04DX002 (ip), vehicle: saline 98 % of control | dose: 400.0 mg/kg/injection, schedule: Q04DX002 (ip), vehicle: saline 98 % of control

CCCCCCCCCCCCCCCCOc1ccc(C2=NCC(C)S2)c(C)c1 (centres undefined)
inactive: [9] 101 % of control | [10] 96 % of control | dose: 400.0 mg/kg/injection, schedule: Q01DX009 (ip), vehicle: Klucel (hydroxypropylcellulose) (HPC) 97 % of control

COc1ccc(OC)c(NC(=S)N/N=C(\C)c2ccc(O)c(C)c2)c1
inactive: dose: 12.5 mg/kg/injection, schedule: Q04DX002 (ip), vehicle: Klucel (hydroxypropylcellulose) (HPC) 97 % of control | dose: 25.0 mg/kg/injection, schedule: Q04DX002 (ip), vehicle: Klucel (hydroxypropylcellulose) (HPC) 115 % of control

CN1CCC(=C(C#N)C#N)CC1
inactive: [8] 91 % of control

CCOc1ccccc1NC(=O)Oc1ccc(SC)c(C)c1
inactive: dose: 100.0 mg/kg/injection, schedule: Q04DX002 (ip), vehicle: saline with Tween-80 113 % of control | dose: 200.0 mg/kg/injection, schedule: Q04DX002 (ip), vehicle: saline with Tween-80 110 % of control | [13] 103 % of control

Cc1ccc(N=Nc2c(C)nc(N)nc2C)cc1
inactive: dose: 75.0 mg/kg/injection, schedule: Q01DX001 (ip), vehicle: saline 97 % of control | dose: 150.0 mg/kg/injection, schedule: Q01DX001 (ip), vehicle: saline 91 % of control

CCCCC(CC1CCCCC1)C(=O)O (centres undefined)
inactive: [2] 91 % of control | [3] 95 % of control | dose: 400.0 mg/kg/injection, schedule: Q01DX001 (ip), vehicle: saline with Tween-80 88 % of control

CCCCNC(=O)CC(C)C(=O)O (centres undefined)
inactive: [11] 100 % of control | [12] 98 % of control | dose: 400.0 mg/kg/injection, schedule: Q01DX009 (ip), vehicle: saline with Tween-80 100 % of control
